Measurements from patent publication US4322540A, “Substituted 4,5,6,7-tetrahydro-1H (or 2H)-indazoles” (Eli Lilly and Company, priority 1981, dated 1982).
Counter-ions that a name gives are not always drawn.

Legend:
[1] = test system: mouse; test: Acute toxicity (LD50) by the intraperitoneal route in the mouse; assay type: in vivo
Protocol: In using the compounds of this invention to inhibit prolactin secretion or to treat Parkinson's syndrome or for other pharmacologic action, a compound according to Formulas I and II above, or a salt thereof with a pharmaceutically-acceptable acid, is administered to a subject suffering from Parkinsonism, or in need of having their prolactin level reduced, in an amount effective to alleviate some of the symptoms of Parkinsonism or to reduce an elevated prolactin level. Oral administration is preferred. If parenteral administration is used, the injection is preferably by the subcutaneous route using an appropriate pharmaceutical formulation. […] In particular, with intravenous or intramuscular administration, a water soluble pharmaceutically-acceptable salt is employed. For oral administration, a compound according to Formulas I and II either as the free base or in the form of a salt thereof can also be mixed with standard pharmaceutical excipients and loaded into empty telescoping gelatin capsules or pressed into tablets. The oral dosage should be in the range 0.01-10 mg/kg of mammalian body weight and the parenteral dose in the range 0.0025 to 2.5 mg/kg. The LD50 of dl-5-di(n-propyl)amino-4,5,6,7-tetrahydro-1H(and 2H)-indazole dihydrochloride is between 100 and 300 mg/kg by the intraperitoneal route in the mouse.

[2] = test system: prolactin; test: Inhibition of prolactin secretion in reserpine-treated rats; assay type: in vivo, adult male rats of the Sprague-Dawley strain; conditions: intraperitoneal, serum one hour after treatment, reserpine-treated male rats
Protocol: The compounds of this invention are also useful as prolactin inhibitors and as such can be employed in the treatment of inappropriate lactation, such as postpartum lactation and galactorrhea.
Adult male rats of the Sprague-Dawley strain weighing about 200 g. were housed in an air-conditioned room with controlled lighting (lights on 6 a.m.-8 p.m.) and fed lab chow and water ad libitum. Each rat received an intraperitioneal injection of 2.0 mg. of reserpine in aqueous suspension 18 hours before administration of the indazole. The purpose of the reserpine was to keep prolactin levels uniformly elevated. The compounds under test were dissolved in water and were injected intraperitioneally at doses ranging from 5 mg/kg down to […]. Each compound was administered at each dose level to a group of 10 rats, and a control group of 10 intact males received an equivalent amount of solvent. One hour after treatment all rats were killed by decapitation, and 150 μl aliquots of serum were assayed for prolactin.
The difference between the prolactin level of the treated rats and prolactin level of the control rats divided by the prolactin level of the control rats gives the percent inhibition of prolactin secretion attributable to the compounds of this invention. In the table, column 1 gives the name of the compound; and columns 2-4 the percent prolactin inhibition at the given dose level.

[3] = test system: nigro-neostriatal-lesioned rats; test: Turning behavior in 6-hydroxy-dopamine-lesioned rats (dopamine agonist activity); assay type: in vivo, rat; conditions: intraperitoneal; for Percent of rats exhibiting turning behavior: 15-minute period after latency; for Number of turns (average): counted over 15-minute period
Protocol: In this test, nigro-neostriatal-lesioned rats, prepared by the procedure of Ungerstedt and Arbuthnott, Brain Res, 24, 485 (1970) are employed. A compound having dopamine agonist activity, upon injection, causes the rats to turn in circles contralateral to the side of the lesion. After a latency period, which varies from compound to compound, the number of turns is counted over a 15-minute period. The compounds are dissolved in water and the resulting aqueous solution injected into the rat by the intraperitioneal route at a series of dose levels.

## CCCN(CCC)C1CCc2n[nH]cc2C1 (racemic) [dl-5-di(n-propyl)amino-4,5,6,7-tetrahydro-1H(and 2H)-indazole dihydrochloride]
[1]; 10 mg/kg
  Lethality: not fatal
[1]; 30 mg/kg
  Lethality: not fatal
  Side effects: produces some undesirable side effects
[2]; 5 mg/kg
  Percent Inhibition of Prolactin: 94%
[2]; 50 mcg/kg
  Percent Inhibition of Prolactin: 1%
[2]; 500 mcg/kg
  Percent Inhibition of Prolactin: 66%
[3]; 1 mg/kg
  Percent of rats exhibiting turning behavior: 67%
  Number of turns (average): 48 turns
[3]; 100 mcg/kg
  Percent of rats exhibiting turning behavior: 33%
  Number of turns (average): 6 turns

## CN(C)C1CCc2[nH]ncc2C1 (racemic) [dl-5-Dimethylamino-4,5,6,7-tetrahydro-1H-indazole dihydrochloride and dl-5-dimethylamino-4,5,6,7-tetrahydro-2H-indazole dihydrochloride]
[2]; 5 mg/kg
  Percent Inhibition of Prolactin: 73%
[2]; 50 mcg/kg
  Percent Inhibition of Prolactin: 31%
[2]; 500 mcg/kg
  Percent Inhibition of Prolactin: 30%
[3]; 1 mg/kg
  Percent of rats exhibiting turning behavior: 33%
  Number of turns (average): 5 turns

## CCCN(CCC)C1CCc2cn[nH]c2C1 (racemic) [dl-6-di-(n-propyl)amino-4,5,6,7-tetrahydro-1H(and 2H)-indazole dihydrochloride]
[2]; 50 mcg/kg
  Percent Inhibition of Prolactin: 31%
[3]; 1 mg/kg
  Percent of rats exhibiting turning behavior: 100%
  Number of turns (average): 98 turns
[3]; 100 mcg/kg
  Percent of rats exhibiting turning behavior: 0%
[3]; 250 mcg/kg
  Percent of rats exhibiting turning behavior: 50%
  Number of turns (average): 30 turns

## NC1CCc2[nH]ncc2C1 (racemic) [dl-5-Amino-4,5,6,7-tetrahydro-1H-indazole dihydrochloride and dl-5-amino-4,5,6,7-tetrahydro-2H-indazole dihydrochloride]
[3]; 1 mg/kg
  Percent of rats exhibiting turning behavior: 33%
  Number of turns (average): 7 turns
